{"source": "the NIST ThermoML archive (doi:10.1016/j.fluid.2018.12.016)", "conditions": "Liquid, Surface laser light scattering (SLLS)", "note": "± gives the expanded uncertainty stated by the source."}
{"smiles": "C", "note": "[methane] + CCCCCCCCCC", "values": [{"measurement": "interfacial tension", "setting": "310.93 K, 36221 kPa", "result": "1.41e-05 ± 5.6e-06", "unit": "mN/m"}, {"measurement": "interfacial tension", "setting": "310.94 K, 36221 kPa", "result": "1.93e-05 ± 3.8e-06", "unit": "mN/m"}, {"measurement": "interfacial tension", "setting": "310.95 K, 36187 kPa", "result": "0.000902 ± 6e-05", "unit": "mN/m"}, {"measurement": "interfacial tension", "setting": "310.96 K, 36198 kPa", "result": "0.000591 ± 3.6e-05", "unit": "mN/m"}, {"measurement": "interfacial tension", "setting": "310.97 K, 34448 kPa", "result": "0.1569 ± 0.0011", "unit": "mN/m"}, {"measurement": "interfacial tension", "setting": "310.97 K, 35150 kPa", "result": "0.08112 ± 0.00074", "unit": "mN/m"}, {"measurement": "interfacial tension", "setting": "310.97 K, 35795 kPa", "result": "0.0247 ± 0.00088", "unit": "mN/m"}, {"measurement": "interfacial tension", "setting": "310.97 K, 35857 kPa", "result": "0.01978 ± 0.00034", "unit": "mN/m"}, {"measurement": "interfacial tension", "setting": "310.97 K, 35989 kPa", "result": "0.01122 ± 0.00022", "unit": "mN/m"}, {"measurement": "interfacial tension", "setting": "310.97 K, 36092 kPa", "result": "0.00519 ± 0.00022", "unit": "mN/m"}, {"measurement": "interfacial tension", "setting": "310.97 K, 36215 kPa", "result": "0.0001152 ± 1e-05", "unit": "mN/m"}, {"measurement": "interfacial tension", "setting": "310.97 K, 36218 kPa", "result": "4.75e-05 ± 7e-06", "unit": "mN/m"}, {"measurement": "interfacial tension", "setting": "310.98 K, 35498 kPa", "result": "0.04752 ± 0.0005", "unit": "mN/m"}, {"measurement": "interfacial tension", "setting": "310.98 K, 35946 kPa", "result": "0.014 ± 0.0002", "unit": "mN/m"}, {"measurement": "interfacial tension", "setting": "310.98 K, 36206 kPa", "result": "0.000326 ± 5.6e-05", "unit": "mN/m"}, {"measurement": "interfacial tension", "setting": "310.99 K, 36151 kPa", "result": "0.002584 ± 9.4e-05", "unit": "mN/m"}, {"measurement": "interfacial tension", "setting": "311 K, 36213 kPa", "result": "0.00015 ± 3.6e-05", "unit": "mN/m"}, {"measurement": "interfacial tension", "setting": "311.12 K, 35885 kPa", "result": "0.01746 ± 0.00032", "unit": "mN/m"}]}
